Experimental data from patent US11213031B2, “Tetrazolylpropyl derivatives and their use as fungicides” (BAYER AKTIENGESELLSCHAFT, priority 2017, dated 2022).
Read-outs that look alike come from different tables or passages of the source.

Assays:
[1] = Log P by HPLC on reversed phase columns (EEC directive 79/831 Annex V.A8); format: physicochemical
Method: Measurement of Log P values was performed according to EEC directive 79/831 Annex V.A8 by HPLC (High Performance Liquid Chromatography) on reversed phase columns with the following methods: • ^[a]Log P value is determined by measurement of LC-UV, in an acidic range, with 0.1% formic acid in water and acetonitrile as eluent (linear gradient from 10% acetonitrile to 95% acetonitrile). • ^[b]Log P value is determined by measurement of LC-UV, in a neutral range, with 0.001 molar ammonium acetate solution in water and acetonitrile as eluent (linear gradient from 10% acetonitrile to 95% acetonitrile). • ^[c]Log P value is determined by measurement of LC-UV, in an acidic range, with 0.1% phosphoric acid and acetonitrile as eluent (linear gradient from 10% acetonitrile to 95% acetonitrile).
If more than one Log P value is available within the same method, all the values are given and separated by “+”.
Calibration was done with straight-chain alkan2-ones (with 3 to 16 carbon atoms) with known Log P values (measurement of Log P values using retention times with linear interpolation between successive alkanones). Lambda-max-values were determined using UV-spectra from 200 nm to 400 nm and the peak values of the chromatographic signals.

Septoria tritici = test: In vivo preventive test on Septoria tritici (leaf spot on wheat); settings: Zymoseptoria tritici, 456 h; 500 ppm of active ingredient; wheat plants sprayed 24 hours before inoculation; evaluated 19 days after inoculation; read-out: efficacy
Method: (§1) Solvent: 5% by volume of Dimethyl sulfoxide • 10% by volume of Acetone
(§2) Emulsifier: 1 μl of Tween® 80 per mg of active ingredient
(§3) The active ingredients were made soluble and homogenized in a mixture of Dimethyl sulfoxide/Acetone/Tween® 80 and then diluted in water to the desired concentration.
The young plants of wheat were treated by spraying the active ingredient prepared as described above. Control plants were treated only with an aqueous solution of Acetone/Dimethyl sulfoxide/Tween® 80.
After 24 hours, the plants were contaminated by spraying the leaves with an aqueous suspension of Septoria tritici spores. The contaminated wheat plants were incubated for 72 hours at 17° C. and at 100% relative humidity and then for 15 days at 20° C. and at 90% relative humidity.
The test was evaluated 19 days after the inoculation. 0% means an efficacy which corresponds to that of the control plants while an efficacy of 100% means that no disease was observed.

Sphaerotheca fuliginea = test: In vivo preventive test on Sphaerotheca fuliginea (powdery mildew on cucurbits); settings: Podosphaera fuliginea, 192 h; 500 ppm of active ingredient; gherkin plants sprayed 24 hours before inoculation; evaluated 8 days after inoculation; read-out: efficacy
Method: as §1, §2, §3
The young plants of gherkin were treated by spraying the active ingredient prepared as described above. Control plants were treated only with an aqueous solution of Acetone/Dimethyl sulfoxide/Tween® 80.
After 24 hours, the plants were contaminated by spraying the leaves with an aqueous suspension of Sphaerotheca fuliginea spores. The contaminated gherkin plants were incubated for 8 days at 20° C. and at 70-80% relative humidity.
The test was evaluated 8 days after the inoculation. 0% means an efficacy which corresponds to that of the control plants while an efficacy of 100% means that no disease was observed.

Uromyces appendiculatus = test: In vivo preventive test on Uromyces appendiculatus (bean rust); settings: 264 h, 500 ppm of active ingredient, bean plants sprayed 24 hours before inoculation, evaluated 11 days after inoculation, read-out: efficacy
Method: as §1, §2, §3
The young plants of bean were treated by spraying the active ingredient prepared as described above. Control plants were treated only with an aqueous solution of Acetone/Dimethyl sulfoxide/Tween® 80.
After 24 hours, the plants were contaminated by spraying the leaves with an aqueous suspension of Uromyces appendiculatus spores. The contaminated bean plants were incubated for 24 hours at 20° C. and at 100% relative humidity and then for 10 days at 20° C. and at 70-80% relative humidity.
The test was evaluated 11 days after the inoculation. 0% means an efficacy which corresponds to that of the control plants while an efficacy of 100% means that no disease was observed.

[2] = method [a]: LC-UV, acidic range, 0.1% formic acid in water and acetonitrile as eluent

SMILES | LogP [1] | chromatographic logP [1, 2] | pest or weed control at 500 ppm (Septoria tritici) | pest or weed control at 500 ppm (Sphaerotheca fuliginea) | pest or weed control at 500 ppm (Uromyces appendiculatus) | also measured
C=C(c1ccccc1F)C(O)(Cn1cnnn1)C1(Cl)CC1 (stereo not drawn) [Ia-en-02, 2-(1-chlorocyclopropyl)-3-(2-fluorophenyl)-1-(tetrazol-1-yl)but-3-en-2-ol] |  | 2.46 | 90 to 100% | 90 to 100% | 90 to 100% | 
OC(Cc1ccccc1F)(Cn1cnnn1)C1(Cl)CC1 (stereo not drawn) [Ia-04, 2-(1-chlorocyclopropyl)-1-(2-fluorophenyl)-3-(tetrazol-1-yl)propan-2-ol] |  | 2.46 | 90 to 100% | 90 to 100% | 90 to 100% | 
OC(Cc1cccnc1Cl)(Cn1ncnn1)C1(Cl)CC1 (stereo not drawn) [Ib-05, 2-(1-chlorocyclopropyl)-1-(2-chloro-3-pyridyl)-3-(tetrazol-2-yl)propan-2-ol] |  | 2.03 | 90 to 100% | 90 to 100% | 70 to 79% | 
OC(Cc1ccccc1Cl)(Cn1cnnn1)C1(Cl)CC1 (stereo not drawn) [Ia-05, 2-(1-chlorocyclopropyl)-1-(2-chlorophenyl)-3-(tetrazol-1-yl)propan-2-ol] |  | 2.65 | 90 to 100% | 90 to 100% | 90 to 100% | 
OC(Cc1ccccc1)(Cn1cnnn1)C1(Cl)CC1 (stereo not drawn) [Ia-01, 2-(1-chlorocyclopropyl)-1-phenyl-3-(tetrazol-1-yl)propan-2-ol] |  | 2.41 | 70 to 79% | 90 to 100% | 90 to 100% | 
OC(Cc1ccccc1F)(Cn1ncnn1)C1(Cl)CC1 (stereo not drawn) [Ib-02, 2-(1-chlorocyclopropyl)-1-(2-fluorophenyl)-3-(tetrazol-2-yl)propan-2-ol] |  | 2.86 | 90 to 100% | 90 to 100% | 90 to 100% | 
CC(c1ccccc1F)C(O)(Cn1cnnn1)C1(Cl)CC1 (single isomer, unassigned) [Ia-20, 2-(1-chlorocyclopropyl)-3-(2-fluorophenyl)-1-(tetrazol-1-yl)butan-2-ol] |  | 2.61 |  | 90 to 100% | 90 to 100% | 
OC(Cc1cccnc1Cl)(Cn1cnnn1)C1(Cl)CC1 (stereo not drawn) [Ia-03, 2-(1-chlorocyclopropyl)-1-(2-chloro-3-pyridyl)-3-(tetrazol-1-yl)propan-2-ol] |  | 1.72 | 90 to 100% | 90 to 100% | 90 to 100% | chromatographic logP ([1]; method [b]: LC-UV, neutral range, 0.001 molar ammonium acetate solution in water and acetonitrile as eluent): 1.68
O=C(Cn1cnnn1)C1(F)CC1 [XVIa-03] | 0.59^[a] |  |  |  |  | 
COc1cccc(CC(O)(Cn2cnnn2)C2(F)CC2)c1 (stereo not drawn) [Ia-26] | 2.11^[a] |  |  |  |  | 
Cc1cccc(CC(O)(Cn2cnnn2)C2(C)CC2)c1 (stereo not drawn) [Ia-65] | 2.73^[a] |  |  |  |  | 
C=C(c1ccccc1)C(O)(Cn1cnnn1)C1(Cl)CC1 (stereo not drawn) [Ia-en-03] | 2.46^[a] |  |  |  |  | 
CC(c1ccccc1F)C(O)(Cn1cnnn1)C1(Cl)CC1 (single isomer, unassigned) [Ia-22, 2-(1-chlorocyclopropyl)-3-(2-fluorophenyl)-1-(tetrazol-1-yl)butan-2-ol] |  |  | 90 to 100% |  |  | LogP [1, 2]: 2.80^[a]
OC(Cc1cccc(Br)c1)(Cn1cnnn1)C1(F)CC1 (stereo not drawn) [Ia-23] | 2.59^[a] |  |  |  |  | 
Cc1ccccc1CC(O)(Cn1cnnn1)C1(C)CC1 (stereo not drawn) [Ia-12] | 2.75^[a] |  |  |  |  | 

Second part, led by results:

LogP [1] | SMILES | chromatographic logP [1, 2] | pest or weed control at 500 ppm (Septoria tritici) | pest or weed control at 500 ppm (Sphaerotheca fuliginea) | pest or weed control at 500 ppm (Uromyces appendiculatus) | also measured
2.57^[a] | C=C(c1cccc(F)c1F)C(O)(Cn1cnnn1)C1(Cl)CC1 (stereo not drawn) [Ia-en-08] |  |  |  |  | 
2.86^[a] | OC(Cc1cc(Cl)ccc1F)(Cn1cnnn1)C1(Cl)CC1 (stereo not drawn) [Ia-29] |  |  |  |  | 
3.02^[a] | OC(Cc1c(F)ccc(F)c1F)(Cn1ncnn1)C1(Cl)CC1 (stereo not drawn) [Ib-19] |  |  |  |  | 
3.09^[a] | OC(Cc1cc(F)c(F)cc1F)(Cn1ncnn1)C1(Cl)CC1 (stereo not drawn) [Ib-16] |  |  |  |  | 
2.52^[a] | OC(Cc1cc(F)ccc1F)(Cn1cnnn1)C1(Cl)CC1 (stereo not drawn) [Ia-42] |  |  |  |  | 
2.94^[a] | COc1ccc(CC(O)(Cn2ncnn2)C2(Cl)CC2)c(F)c1F (stereo not drawn) [Ib-13] |  |  |  |  | 
2.94^[a] | OC(Cc1ccc(F)c(Cl)c1F)(Cn1cnnn1)C1(Cl)CC1 (stereo not drawn) [Ia-38] |  |  |  |  | 
2.13^[a] | OC(Cc1cncc(Cl)c1)(Cn1ncnn1)C1(Cl)CC1 (stereo not drawn) [Ib-01] |  |  |  |  | 
2.66^[a] | OC(Cc1cc(F)cc(F)c1F)(Cn1cnnn1)C1(Cl)CC1 (stereo not drawn) [Ia-43] |  |  |  |  | 
3.37^[a] | OC(Cc1ccc(F)c(Cl)c1F)(Cn1ncnn1)C1(Cl)CC1 (stereo not drawn) [Ib-12] |  |  |  |  | 
2.40^[a] | OC(Cc1ccccc1Cl)(Cn1cnnn1)C1(F)CC1 (stereo not drawn) [Ia-19] |  |  |  |  | 
